Bridges are numbered along the chain shown (N, C = ends). Where no end group is shown, it is not given here.
tested on: ApoL1; assay: Spot phage ELISA, ApoL1; type: binding, human; conditions: ratio of signal for target protein over BSA background

Row | Substance | S/N
1 | GCAFQFYLCKQDSDCLAGCVCGGTQSCG (also: bicyclic or more (positions not given here)) [ApoL1 EET I-II 38] | 11.5
2 | GCAFRRHVCKQDSDCLAGCVCDKSDGCG (also: bicyclic or more (positions not given here)) [ApoL1 EET I-II 25] | 25.7
3 | GCGFWKWMHGCKQDSDCLAGCVCGPNGFCG (also: bicyclic or more (positions not given here)) [ApoL1 EET I-II 46] | 3.9
4 | GCHFKVWWCKQDSDCLAGCVCDPAVICG (also: bicyclic or more (positions not given here)) [ApoL1 EET I-II 44] | 6.1
5 | GCHYRRNRWEQACKQDSDCLAGCVCQGMPKCG (also: bicyclic or more (positions not given here)) [ApoL1 EET I-II 18] | 38.3
6 | GCKFAKARCKQDSDCLAGCVCSPVRKCG (also: bicyclic or more (positions not given here)) [ApoL1 EET I-II 10] | 42.7
7 | GCKFHLWFCKQDSDCLAGCVCDPNGFCS (also: bicyclic or more (positions not given here)) [ApoL1 EET I-II 33] | 15.3
8 | GCKFKAHSCKQDSDCLAGCVCSGQDPGCG (also: bicyclic or more (positions not given here)) [ApoL1 EET I-II 30] | 18.9
9 | GCKFKCKQDSDCLAGCVCGHYDHCG (also: bicyclic or more (positions not given here)) [ApoL1 EET I-II 28] | 23.6
10 | GCKFKEWFCKQDSDCLAGCVCEHSQSCG (also: bicyclic or more (positions not given here)) [ApoL1 EET I-II 20] | 36.0
11 | GCKFKHFLCKQDSDCLAGCVCDDLQNCG (also: bicyclic or more (positions not given here)) [ApoL1 EET I-II 9] | 43.0
12 | GCKFKHWYCKQDSDCLAGCVCCPPNHYG [ApoL1 EET I-II 11] | 41.1
13 | GCKFKRHMCKQDSDCLAGCVCTVKQNCG (also: bicyclic or more (positions not given here)) [ApoL1 EET I-II 41] | 8.3
14 | GCKFKRWTCKQDSDCLAGCVCEQPGMCG (also: bicyclic or more (positions not given here)) [ApoL1 EET I-II 19] | 37.0
15 | GCKFKSFTCKQDSDCLAGCVCWDQDTCG (also: bicyclic or more (positions not given here)) [ApoL1 EET I-II 7] | 44.3
16 | GCKFKWHFCKQDSDCLAGCVCQPHETCG (also: bicyclic or more (positions not given here)) [ApoL1 EET I-II 36] | 12.4
17 | GCKFMNWKCKQDSDCLAGCVCTENEPCG (also: bicyclic or more (positions not given here)) [ApoL1 EET I-II 2] | 53.2
18 | GCKFRLWFCKQDSYCLPGCVCGPNGFCG (also: bicyclic or more (positions not given here)) [ApoL1 EET I-II 42] | 7.2
19 | GCKFRLWHCKQDSDCLAGCVCTAQPDCG (also: bicyclic or more (positions not given here)) [ApoL1 EET I-II 47] | 3.6
20 | GCKFRNWLCKQDSDCLAGCVCPWDTHCG (also: bicyclic or more (positions not given here)) [ApoL1 EET I-II 43] | 6.6

Row | Substance | S/N
21 | GCKFRRWKCKQDSDCLAGCVCDPQGPCG (also: bicyclic or more (positions not given here)) [ApoL1 EET I-II 39] | 9.9
22 | GCKFWFWRLCKQDSDCLAGCVCAGSPPCG (also: bicyclic or more (positions not given here)) [ApoL1 EET I-II 35] | 14.1
23 | GCKFWLHRYKQDSDCLAGCVCGPNVFG [ApoL1 EET I-II 4] | 47.1
24 | GCKFWSRFCKQDSDCLAGCVCKNTDHCG (also: bicyclic or more (positions not given here)) [ApoL1 EET I-II 6] | 44.8
25 | GCKMKKYMCKQDSDCLAGCVCHQQSKCG (also: bicyclic or more (positions not given here)) [ApoL1 EET I-II 40] | 8.9
26 | GCKYKCKQDSDCLAGCVCQQQGGCG (also: bicyclic or more (positions not given here)) [ApoL1 EET I-II 14] | 40.2
27 | GCLFKKAMGFCKQDSDCLAGCVCREMSHCG (also: bicyclic or more (positions not given here)) [ApoL1 EET I-II 3] | 52.4
28 | GCLFKQEMGTCKQDSDCLAGCVCEFQQKCG (also: bicyclic or more (positions not given here)) [ApoL1 EET I-II 16] | 40.2
29 | GCLFKRHFCKQDSDCLAGCVCVDQFPCG (also: bicyclic or more (positions not given here)) [ApoL1 EET I-II 21] | 35.5
30 | GCLFRRNFCKQDSDCLAGCVCEPFPECG (also: bicyclic or more (positions not given here)) [ApoL1 EET I-II 31] | 17.5
31 | GCMFKAHWCKQDSDCLAGCVCHRSALCG (also: bicyclic or more (positions not given here)) [ApoL1 EET I-II 12] | 41.1
32 | GCMFKQRHCKQDSDCLAGCVCSQGQPCG (also: bicyclic or more (positions not given here)) [ApoL1 EET I-II 5] | 47.1
33 | GCMFKRYFCKQDSDCLAGCVCPHDDQCG (also: bicyclic or more (positions not given here)) [ApoL1 EET I-II 34] | 14.2
34 | GCMFLRHFNRCKQDSDCLAGCVCPHIPDCG (also: bicyclic or more (positions not given here)) [ApoL1 EET I-II 26] | 24.0
35 | GCMFQMHFCKQDSDCLAGCVCGMSDCCG [ApoL1 EET I-II 27] | 23.7
36 | GCRFKRHKCKQDSDCLAGCVCPEMSTCG (also: bicyclic or more (positions not given here)) [ApoL1 EET I-II 15] | 40.2
37 | GCRFMSHMRKRECKQDSDCLAGCVCDYQTACG (also: bicyclic or more (positions not given here)) [ApoL1 EET I-II 1] | 70.0
38 | GCRFREMFYKVTCKQDSDCLAGCVCSHEANCG (also: bicyclic or more (positions not given here)) [ApoL1 EET I-II 8] | 43.8
39 | GCRFRLWAMKSHCKQDSDCLAGCVCSDYSDCG (also: bicyclic or more (positions not given here)) [ApoL1 EET I-II 13] | 40.4

tested on: PCSK9; assay: not given; type: binding, human; conditions: ratio of signal for target protein over BSA background

Row | Substance | s/n ratio
40 | GPTQSKYGMCGGIGYSGPTVCASGTTCQVLDPYTSQCLPGAS (disulfide 10-27, 21-37 (inferred)) [PCSK9FL_CBD2] | 26.8
41 | GPTQSNYGMCGGIGYSGPTVCASGTTCQVLYPTTSRCLPGAS (also: bicyclic or more (positions not given here)) [PCSK9FL_CBD1] | 17.7

same assay, conditions: spot phage ELISA signal-to-noise on PCSK9

Row | Substance | S/N
42 | GPTQSKYGMCGGIGYSGPTVCASGTTCQVLDPYTSQCLPGAS (disulfide (positions not given here)) [PCSK9 CBD 14] | 8.8
43 | GPTQSLFGMCGGIGYSGPTVCASGTTCQVLYPTTSRCLPGAS (disulfide (positions not given here)) [PCSK9 CBD 20] | 18.0
44 | GPTQSMCGMCGGIGYSGPTVCASGTTCQVLDPHTSQCLPGAS (disulfide (positions not given here)) [PCSK9 CBD 18] | 14.0
45 | GPTQSMYGMCGGIGYSGPTVCASGTTCQVLDPNTSQCLPGAS (disulfide (positions not given here)) [PCSK9 CBD 11] | 6.9
46 | GPTQSNYGMCGGIGYSGPTVCASGTTCQVLYPTTSRCLPGAS (disulfide (positions not given here)) [PCSK9 CBD 1] | 17.7
47 | GPTQSNYGMCGGIGYSGPTVCASGTTCQVLqPSTSRCLPGAS (disulfide) [PCSK9 CBD 16] | 11.6
48 | GPTQSNYGQCGGIGYSGPTVCASGTTCQVLWPAMSWCLPGAS (disulfide (positions not given here)) [PCSK9 CBD 15] | 14.0
49 | GPTQSNYGQCGGIGYSGPTVCASGTTCQVLqPAMSWCLPGAS (disulfide) [PCSK9 CBD 21] | 18.7
50 | GPTQSPGGICGGIGYSGPTVCASGTTCQVLSPEYSQCLPGAS (disulfide (positions not given here)) [PCSK9 CBD 19] | 15.8
51 | GPTQSQFGMCGGIGYSGPTVCASGTTCQVLDPTTSQCLPGAS (disulfide (positions not given here)) [PCSK9 CBD 2] | 2.5
52 | GPTQSTCGQCGGIGYSGPTVCASGTTCQVLWPTLSWCLPGAS (disulfide (positions not given here)) [PCSK9 CBD 27] | 20.8
53 | GPTQSTYGQCGGIGYSGPTVCASGTTCQVLGPALSWCLPGAS (disulfide (positions not given here)) [PCSK9 CBD 9] | 5.2
54 | GPTQSTYGQCGGIGYSGPTVCASGTTCQVLWPALSWCLPGAS (disulfide (positions not given here)) [PCSK9 CBD 22] | 15.0
55 | GPTQSTYGQCGGIGYSGPTVCASGTTCQVLWPALSWCLPGAS (disulfide (positions not given here)) [PCSK9 CBD 26] | 21.5
56 | GPTQSTYGRCGGIGYSGPTVCASGTTCQVLWPALSWCLPGAS (disulfide (positions not given here)) [PCSK9 CBD 4] | 3.7
57 | GPTQSVHGMCGGIGYSGPTVCASGTTCQVLDPFTSQCLPGAS (disulfide (positions not given here)) [PCSK9 CBD 24] | 14.8
58 | GPTQSVYGMCGGIGYSGPTVCASGTTCQVLDPTTSQCLPGAS (disulfide (positions not given here)) [PCSK9 CBD 25] | 14.9
59 | GPTQSYGQCGGIGYSGPTVCASGTTCQVLWPQVSWCLPGAST (disulfide (positions not given here)) [PCSK9 CBD 6] | 2.9

From PMC10977697 (PLOS ONE, 2024)
